In patent US20250064993A1, “NOVEL BISPIDINE-BASED METAL CHELATING LIGANDS DISPLAYING GOOD RELAXIVITY” (UNIVERSITE DE STRASBOURG, priority 2021, published 2025):
Values belong to the molecule of their own block, whether it stands above or below them.

Key:
[1] = Longitudinal relaxivity r1 in water at 60 MHz (WP80 NMR, Bruker); type: physicochemical; conditions: at 25° C., pH = 7.4, and 60 MHz
Description: Equimolar quantities of ligand and MnCl2 were dissolved in milli-Q water, the pH was adjusted to 7.4 either with a buffered solution or by adding KOH or HCl to the solution and the samples were heated at 60° C. for 30 min. The absence of free Mn^2+ was checked by the Xylenol orange test.
The relaxivity at 60 MHz is measured with a device commercialized under the brand name WP80 NMR by the firm Brucker according to the following protocol. A millimolar aqueous solution of complex was prepared with Milli-Q water (p<18MΩ). The concentration of Mn^2+-containing samples was checked by ICP-OES and/or NMR by using the bulk magnetic susceptibility. The absence of free Mn^2+ was checked by the Xylenol orange test. For the relaxivity measurement, the temperature was monitored by a VTC91 temperature control unit and maintained by a gas flow. The temperature was determined by previous calibration with a Pt resistance temperature probe.

[2] = Kinetic inertness: half-life by transmetallation of the Mn2+ complex with excess Zn2+, followed by water proton relaxation rates; type: physicochemical; conditions: 25 eq Zn^2+, pH = 6, 37° C.; read-out: Half-life in excess of Zn^2+ (t1/2) (converted)
Description: The excess of the exchanging metal ion guarantees the pseudo-first order conditions. For the duration of the experiments (up to 3 months), the samples were stored in a thermostat at 37° C. between the relaxivity measurements. The pH was controlled for each sample at the end of the kinetic measurements to confirm that it remained stable during the experiment. The reactions were monitored by measuring the water proton relaxation rates at 60 MHz on a relaxometer commercialized under the brand name Minispec by the firm a Bruker. The analysis of the experimental data was performed using Visualiseur/Optimiseur running on a MATLAB 8.3.0 (R2014a) platform according to equations (1) and (2): […]
were [MnL]t stands for the total concentration of MnL complex, Kobs stands for the pseudo-first order constant and t1/2 is the half-life of the MnL complex in the given conditions.

[3] = pH of 7.4, 60 MHz, 25° C.; cited from earlier work

Longitudinal relaxivity in water (r1) ([1]; listed as (I-A)): 4.89 mM⁻¹ s⁻¹
SMILES: CN1[C@@H](c2ccccn2)C2(C(=O)O)CN([C@@H](CCCCNC(=O)CCOCCOCCO)C(=O)O)CC(C(=O)O)([C@H]2O)[C@H]1c1ccccn1 [(I-a)]

Longitudinal relaxivity in water (r1) ([1]; listed as (I-D)): 4.03 mM⁻¹ s⁻¹
half-life at 1 mM [2]: 160 days
SMILES: CN1[C@@H](c2ccccn2)C2(C(=O)O)CN([C@@H](CCCCNC(=O)CCOCCOCCO)C(=O)O)CC(C(=O)O)([C@H]2O)[C@H]1c1ccccn1 [(I-d)]

SMILES: CNC[C@H](O)[C@@H](O)[C@H](O)[C@H](O)CO.O=C([O-])CN1CCN(CC(=O)[O-])CCN(CC(=O)O)CCN(CC(=O)[O-])CC1.[Gd+3] [Dotarem, gadoterate meglumine]
relaxivity r1 [3]: 3.7 mM⁻¹ s⁻¹
